Measured values from publication PMC8079061 (Pharmaceutical Biology, 2021).
Values belong to the compound of their own block, whether it stands above or below them.

Experiments:
[1] = format: in vivo, Sprague–Dawley rats
[2] = dogs, oral dose of 0.3 mg/kg poziotinib; ref Kim et al. [2013]; cited from earlier work
[3] = patients, combined with paclitaxel and trastuzumab; ref Kim TY et al. [2019]; cited from earlier work
RLM = assay: Inhibition of poziotinib metabolism; format: in vitro ADME, rat
HLM = assay: Inhibition of poziotinib metabolism; format: in vitro ADME, human
recombinant human CYP3A4 = recombinant human CYP3A4 (Homo sapiens, UniProt P08684); assay: Inhibition of poziotinib metabolism; format: in vitro ADME; conditions: CYP3A4, stated in abstract
recombinant human CYP2D6 = recombinant human CYP2D6 (Homo sapiens, UniProt P10635); assay: Inhibition of poziotinib metabolism; format: in vitro ADME; conditions: CYP2D6, stated in abstract
[4] = healthy volunteers, coadministered with paroxetine; ref Ruiz-Garcia et al. [2014]; cited from earlier work
[5] = rat, preadministered with dacomitinib (10 mg/kg) for two weeks

Chain of recombinant human CYP2D6 (P10635 whole entry): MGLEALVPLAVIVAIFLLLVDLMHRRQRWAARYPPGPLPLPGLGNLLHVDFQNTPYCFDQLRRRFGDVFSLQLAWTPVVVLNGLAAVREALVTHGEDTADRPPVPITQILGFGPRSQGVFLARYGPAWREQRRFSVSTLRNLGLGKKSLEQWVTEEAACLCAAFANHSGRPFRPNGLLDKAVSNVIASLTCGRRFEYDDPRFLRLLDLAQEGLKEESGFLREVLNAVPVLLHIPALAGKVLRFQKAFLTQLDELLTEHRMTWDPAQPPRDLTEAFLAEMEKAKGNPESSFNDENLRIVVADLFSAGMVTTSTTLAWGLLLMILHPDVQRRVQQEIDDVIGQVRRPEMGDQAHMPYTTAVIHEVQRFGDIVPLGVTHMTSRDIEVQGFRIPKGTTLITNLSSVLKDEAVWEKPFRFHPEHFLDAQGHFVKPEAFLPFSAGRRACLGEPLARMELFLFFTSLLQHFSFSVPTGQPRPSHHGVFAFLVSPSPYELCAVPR
Chain of recombinant human CYP3A4 (P08684 whole entry): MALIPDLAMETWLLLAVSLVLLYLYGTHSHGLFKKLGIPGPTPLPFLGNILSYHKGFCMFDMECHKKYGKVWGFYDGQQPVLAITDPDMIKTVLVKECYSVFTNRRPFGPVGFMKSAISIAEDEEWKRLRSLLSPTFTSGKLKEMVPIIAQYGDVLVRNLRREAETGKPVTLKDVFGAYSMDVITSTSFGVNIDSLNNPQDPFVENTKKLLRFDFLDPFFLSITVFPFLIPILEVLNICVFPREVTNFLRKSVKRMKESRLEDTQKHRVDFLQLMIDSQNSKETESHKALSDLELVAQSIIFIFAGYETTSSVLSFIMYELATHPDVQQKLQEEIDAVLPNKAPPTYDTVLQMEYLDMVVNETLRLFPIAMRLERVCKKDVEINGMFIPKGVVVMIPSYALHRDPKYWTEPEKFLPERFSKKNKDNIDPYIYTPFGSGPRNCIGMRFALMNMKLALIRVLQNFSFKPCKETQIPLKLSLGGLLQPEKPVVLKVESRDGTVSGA

SMILES: C=CC(=O)N1CCC(Oc2cc3c(Nc4ccc(Cl)c(Cl)c4F)ncnc3cc2OC)CC1 [poziotinib, Poziotinib]
delay of Tmax of poziotinib after pre-treatment with dacomitinib ([1]; rat): ~3 h | increase of AUC(0–t) of poziotinib, test group vs control group ([1]; rat, dacomitinib pre-treatment two weeks, p < 0.01): 1.6 fold | increase of Tmax of poziotinib, test group vs control group [1, 5]: 1.3 fold | increase of t1/2 of poziotinib, test group vs control group [1, 5]: 1.6 fold | adverse effects observed ([1]; rats, poziotinib 10 mg/kg oral with or without dacomitinib): No obvious adverse effects were observed | Tmax [2]: 0.40 to 1.00 h | t1/2 [2]: 3.40 to 5.40 h | maximum tolerated dose (MTD) [3]: 8 mg/day

Ki (RLM; M1): 8.18 µM | αKi (RLM; M1): 38.81 µM | Ki (RLM; M2): 47.5 µM | αKi (RLM; M2): 38.07 µM | Ki (HLM; M1): 83.7 µM | αKi (HLM; M1): 93.73 µM | Ki (HLM; M2): 0.17 µM | mechanism of inhibition of poziotinib metabolism (recombinant human CYP3A4): mixed way | mechanism of inhibition of poziotinib metabolism (recombinant human CYP2D6): mixed way
SMILES: COc1cc2ncnc(Nc3ccc(F)c(Cl)c3)c2cc1NC(=O)/C=C/CN1CCCCC1 [dacomitinib, Dacomitinib]
mechanism of inhibition of poziotinib metabolism (RLM): mixed inhibitor | Inhibition type (RLM; M1, Lineweaver–Burk plot): Mixed | Inhibition type (RLM; M2, Lineweaver–Burk plot): Mixed | mechanism of inhibition of poziotinib metabolism (HLM): mixed inhibitor | Inhibition type (HLM; M1, Lineweaver–Burk plot): Mixed | Inhibition type (HLM; M2, Lineweaver–Burk plot): Mixed | increase of dacomitinib exposure [4]: 37%
